One may read the EC50 as the concentration that produces a half-maximal response. Low readings indicate a more potent agent, high ones a less potent agent. As a reminder, the Kd is the free concentration of one partner at which half of the binding sites on the other are occupied at equilibrium, for simple one-to-one binding.

Numbering of substitutions follows the chain as printed. Entries after “also recorded” stand apart in the source; their conditions may differ. Like-named read-outs stand apart in the source and are kept apart here. Where only a bound is given, the exact number is not on record here.

The target in test [1] is T1, porcine GR Ala610 (wild-type) (Sus scrofa, UniProt Q9N1U3, V610A).
T1 construct: expressed in transfected cells; host or cells: Cos-7
T1 sequence (Q9N1U3 1-782 V610A): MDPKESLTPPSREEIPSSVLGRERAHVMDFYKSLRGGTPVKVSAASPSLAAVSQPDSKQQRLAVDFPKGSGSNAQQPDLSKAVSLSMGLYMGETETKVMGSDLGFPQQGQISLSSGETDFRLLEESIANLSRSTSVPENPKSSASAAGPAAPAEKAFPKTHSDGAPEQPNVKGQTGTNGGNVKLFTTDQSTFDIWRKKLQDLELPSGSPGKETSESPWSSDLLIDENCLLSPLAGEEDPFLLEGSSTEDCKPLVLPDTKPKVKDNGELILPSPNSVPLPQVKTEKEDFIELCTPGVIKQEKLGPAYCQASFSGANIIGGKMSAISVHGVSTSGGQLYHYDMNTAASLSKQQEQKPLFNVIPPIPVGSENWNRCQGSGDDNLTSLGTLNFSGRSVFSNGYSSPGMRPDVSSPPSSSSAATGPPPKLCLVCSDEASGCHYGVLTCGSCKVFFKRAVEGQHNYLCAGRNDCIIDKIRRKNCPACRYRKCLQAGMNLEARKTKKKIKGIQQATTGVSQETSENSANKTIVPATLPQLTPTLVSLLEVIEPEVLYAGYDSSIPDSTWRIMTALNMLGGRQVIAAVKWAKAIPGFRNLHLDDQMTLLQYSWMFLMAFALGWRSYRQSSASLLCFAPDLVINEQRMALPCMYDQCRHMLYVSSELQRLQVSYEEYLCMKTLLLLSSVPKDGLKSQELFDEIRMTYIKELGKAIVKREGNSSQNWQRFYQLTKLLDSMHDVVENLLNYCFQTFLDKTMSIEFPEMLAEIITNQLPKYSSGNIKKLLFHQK
Briefly: Transactivation assay (MMTV-luciferase reporter) in Cos-7 cells, wild-type Ala610 GR. The class given is cell-based. The note with it: for EC50: Cos-7 cells. On the procedure: Porcine GR expression plasmids (pCMV-GRA610 or pCMV-GRV610) harboring the SNP NR3C1 c.1829C>T (causing the Ala610Val substitution) were used for a transactivation assay in Cos-7 cells as previously described. In brief, monkey kidney Cos-7 cells were seeded in 96-well plates at a density of 2.5×10^4 cells/well in DMEM (Invitrogen, Karlsruhe, Germany) with 10% FCS. Twenty-four hours after seeding, cells were co-transfected with 200 ng of expression vector, 100 ng of pGL4.36 reporter (Promega, Mannheim, Germany) and 2 ng of pRL-SV40 plasmid (Promega) according to the Lipofectamine 2000 protocol (Invitrogen). The reporter plasmid pGL4.36 expresses firefly luciferase under control of the glucocorticoid-inducible MMTV (Murine Mammary Tumor Virus Long Terminal repeat) promoter while the pRL-SV40 vector constitutively expresses the Renilla luciferase and was used to normalize for transfection efficiency. […] Therefore, cell media was replaced by DMEM supplemented with respective steroid concentrations and 10% charcoal-stripped FCS (PAA Laboratories, Coelbe, Germany). Twenty-four hours after stimulation, firefly and Renilla luciferase activities were measured using the Dual-Glo Luciferase Assay System (Promega) in a DTX 880 Multimode Detector (Beckman Coulter, Krefeld, Germany).
Transcript abundance was corrected for the copy number of expression plasmid.
For all steroids except testosterone, two separate experiments were performed in triplicate. Data were adjusted for transfection efficiency and the resulting luciferase ratios were normalized to cells that were treated with ethanol only. Fold-changes of transcriptional activity were compared using a generalized mixed linear model including fixed effects of genotype, hormone concentration, and the interaction of the two. Data were analyzed using SAS V9.3 software (SAS Institute, Cary, NC, USA). Least-square means were compared at each concentration and p-values were adjusted by Dunnett’s post-hoc test. Fold-change values were further adjusted to maximum relative luciferase induction and dose-response curves, EC50, and significance of EC50 differences were estimated using dose-response equation of GraphPad Prism 5 (GraphPad Software Inc, San Diego, CA).

For test [2], the target named is T2, porcine GR Val610 (mutant) (Sus scrofa, UniProt Q9N1U3).
T2 sequence (Q9N1U3 1-782): T1 sequence (Q9N1U3 1-782 V610A) with A610V
Briefly: Transactivation assay (MMTV-luciferase reporter) in Cos-7 cells, mutant Val610 GR. For orientation: In a reporter assay the amount or activity of a reporter protein is the signal.
Description: Porcine GR expression plasmids (pCMV-GRA610 or pCMV-GRV610) harboring the SNP NR3C1 c.1829C>T (causing the Ala610Val substitution) were used for a transactivation assay in Cos-7 cells as previously described [13]. In brief, monkey kidney Cos-7 cells were seeded in 96-well plates at a density of 2.5×10^4 cells/well in DMEM (Invitrogen, Karlsruhe, Germany) with 10% FCS. Twenty-four hours after seeding, cells were co-transfected with 200 ng of expression vector, 100 ng of pGL4.36 reporter (Promega, Mannheim, Germany) and 2 ng of pRL-SV40 plasmid (Promega) according to the Lipofectamine 2000 protocol (Invitrogen). The reporter plasmid pGL4.36 expresses firefly luciferase under control of the glucocorticoid-inducible MMTV (Murine Mammary Tumor Virus Long Terminal repeat) promoter while the pRL-SV40 vector constitutively expresses the Renilla luciferase and was used to normalize for transfection efficiency. […] Therefore, cell media was replaced by DMEM supplemented with respective steroid concentrations and 10% charcoal-stripped FCS (PAA Laboratories, Coelbe, Germany). Twenty-four hours after stimulation, firefly and Renilla luciferase activities were measured using the Dual-Glo Luciferase Assay System (Promega) in a DTX 880 Multimode Detector (Beckman Coulter, Krefeld, Germany).

Test [3] concerns the target T3, Ala610 GR (Sus scrofa, UniProt Q9N1U3, V610A). The note with it: [3H]-dexamethasone, whole Cos-7 cells, mean ± SE. On the procedure:
(§1) A whole-cell GR binding assay was adapted from the protocol previously described for peripheral blood mononuclear cells (PBMC). Cos-7 cells were seeded in 10-cm dishes and T75 flasks at a density of 1.75x10^5 cells/mL. After 24 hours in culture, cells were transfected with pCMV-GRA610 or pCMV-GRV610 using either 10 μg plasmid and 50 μL Fugene HD (Promega) for dishes or 15 μg plasmid and 75 μL Fugene HD for flasks. After another 24 hours in culture, media were replaced with serum-free DMEM to avoid contamination with steroids. One day later cells were pelleted, washed with PBS, and resuspended in DMEM supplemented with 10 mM HEPES buffer. […] After incubation, cells were washed with ice-cold PBS and centrifuged (10 min, 400 × g, 4°C) three times. Cell pellets were then resuspended in 100 μL PBS and mixed with 3 mL scintillation fluid (Rotiszint eco plus, Carl Roth GmbH, Karlsruhe, Germany). Radioactivity was measured in a spectral liquid scintillation counter (Tri-Carb 2900TR, Perkin Elmer Inc., USA) at 50% efficiency. The experiment was performed three times.
(§2) Saturation binding analysis included in nonlinear regression models implemented in GraphPad Prism 5 was used to fit binding curves to estimate the dissociation constant (KD, mean ± SE), maximum specific binding (Bmax, mean ± SE), and differences in these values dependent upon GR genotype.

A further test concerns the target Val610 GR (Sus scrofa, UniProt Q9N1U3). Briefly: cell-based. Here is the method:
as §1, §2

Test [4] deals with T3, Ala610 GR. To be noted: [3H]-dexamethasone, pituitary cytosol, homozygous wild-type. On the procedure:
(§3) Pituitary glands were quickly removed from pigs after electronarcotization and exsanguination, snap-frozen, and stored at -80°C. […] Nine pools per genotype, each containing two to three samples, were analyzed. In total 40 pituitaries were used. Pituitaries from homozygous carriers of the alternative variant were not available due to its low frequency.
(§4) GR binding analysis was performed on the pooled samples as previously described. Briefly, tissues were homogenized in ice-cold 10 mM Tris-HCl buffer, pH 7.5, containing 12.5 mM EDTA, 10 mM sodium molybdate, […] sucrose, and 5 mM dithiothreitol using an electric homogenizer (Ultra-Turrax, IKA, Staufen, Germany). The homogenate was centrifuged at 120,000 × g for 60 min at 0–4°C to isolate cytosol (supernatant fraction). […] Non-specific binding was determined with a parallel incubation containing 500-fold excess of RU 28362 (kindly donated by Roussel Uclaf, France), which binds selectively to GR. The separation of bound from free ligand was performed by precipitation with dextran-coated charcoal and the receptor-[^3H]-steroid complexes were counted in the Tri-Carb 2900TR scintillation counter at 50% efficiency. Protein concentrations for each pool were determined with bovine serum albumin as a standard. Binding values were corrected for the amount of protein input. Individual binding curves for each pool were fitted using GraphPad Prism 5 as described above. Resulting KD and Bmax values were compared between genotypes using a mixed linear model implemented in SAS. The model included the effect of genotype and experimental batch.

Another test has as its target AlaVal610 GR (Sus scrofa, UniProt Q9N1U3). The note with it: pituitary cytosol. On the procedure: as §3, §4
The next test deals with GFP-tagged Ala610 GR (Sus scrofa, UniProt Q9N1U3, V610A). The note with it: Cos-7 cells, after stimulation with dexamethasone. The source says:
(§5) Green fluorescent protein (GFP)-tagged expression vectors were generated to track subcellular distribution and movement of both GR variants. In brief, the EGFP region was amplified from EGFP-N1 (Clontech, Heidelberg, Germany), using primers EGFP_N_fw and EGFP_N_rev (Table 1) and the proofreading PrimeSTAR HS DNA Polymerase (MoBiTec, Göttingen, Germany). The product was inserted into the pCMV-Tag1 vector (Agilent Technologies, Waldbronn, Germany) using NotI restriction sites. The resulting plasmid was further digested with BamHI and BglII restriction enzymes to insert BclI digested GR-alpha fragments. Therefore, GR-alpha fragments were amplified using cDNA of two individuals homozygous for the c.1829C>T SNP with primers GR_N-Flag_fw2 and GR_N-Flag_rev (Table 1). […]
(§6) Cos-7 cells were seeded in culture dishes (Greiner Bio-One, Frickenhausen, Germany) or 8-well chamber slides (VWR International, Hannover, Germany) for live cell imaging at a density of 1.6x10^5 cells/mL in DMEM with 10% FCS and transfected one day later with pCMV-GFP-GRA610 or pCMV-GFP-GRV610 using a Lipofectamine:DNA-ratio of 3:1. […] Before visualization by microscopy, media were replaced with phenol red-free DMEM supplemented with 5% charcoal stripped FCS, and the dish or slide to be analyzed was placed in a microscope incubator at 37°C and 5% CO2.

The target in the next test is GFP-tagged Val610 GR (Sus scrofa, UniProt Q9N1U3). The note with it: Cos-7 cells, after stimulation with dexamethasone.
Chain of GFP-tagged Val610 GR (Q9N1U3 whole entry): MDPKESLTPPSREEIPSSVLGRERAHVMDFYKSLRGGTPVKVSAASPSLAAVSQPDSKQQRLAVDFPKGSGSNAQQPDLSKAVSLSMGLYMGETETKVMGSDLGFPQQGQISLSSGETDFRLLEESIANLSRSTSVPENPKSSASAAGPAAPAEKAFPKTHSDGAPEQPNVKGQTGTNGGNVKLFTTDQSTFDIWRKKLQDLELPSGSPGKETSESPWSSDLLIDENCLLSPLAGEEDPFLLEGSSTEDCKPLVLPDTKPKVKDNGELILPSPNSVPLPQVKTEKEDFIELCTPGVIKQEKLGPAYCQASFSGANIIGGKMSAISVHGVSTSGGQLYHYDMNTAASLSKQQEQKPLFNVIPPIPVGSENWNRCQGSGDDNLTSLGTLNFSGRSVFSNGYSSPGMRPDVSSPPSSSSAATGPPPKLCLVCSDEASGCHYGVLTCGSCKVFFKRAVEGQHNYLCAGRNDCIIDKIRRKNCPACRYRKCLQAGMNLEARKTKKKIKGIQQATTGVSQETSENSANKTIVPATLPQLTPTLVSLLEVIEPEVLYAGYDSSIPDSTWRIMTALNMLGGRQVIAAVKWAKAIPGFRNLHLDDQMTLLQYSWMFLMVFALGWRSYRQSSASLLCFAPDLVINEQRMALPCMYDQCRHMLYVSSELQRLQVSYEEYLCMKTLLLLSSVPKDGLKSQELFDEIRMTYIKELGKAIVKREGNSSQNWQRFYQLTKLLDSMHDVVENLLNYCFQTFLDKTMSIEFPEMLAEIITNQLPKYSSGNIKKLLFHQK
Description: as §5, §6

The mark [5] stands for this setting: wide concentration range 0.01 nM to 10 μM, 24 h stimulation.

Chain of AlaVal610 GR (Q9N1U3 whole entry): as above
Chain of AlaVal610 GR (Q9N1U3 whole entry): as above
Chain of Val610 GR (Q9N1U3 whole entry): as above

With `C[C@]12CCC(=O)C=C1CC[C@@H]1[C@@H]2[C@@H](O)C[C@]2(C=O)[C@@H](C(=O)CO)CC[C@@H]12` [aldosterone], the EC50 in test [1] (setting [5]) stood at 0.161 µM; in test [2], 0.0506 µM.

For `C[C@]12CCC(=O)C=C1CC[C@@H]1[C@@H]2[C@@H](O)C[C@@]2(C)[C@H]1CC[C@]2(O)C(=O)CO` [cortisol], the EC50 was determined as 0.0372 µM in test [1] (narrow concentration range); 0.0447 µM in test [1] (setting [5]); 0.0365 µM in test [2]; 0.0229 µM in test [2] (EC50 of transactivation, Val610 GR, Cos-7 cells, narrow concentration range).

As for `C[C@@H]1C[C@H]2[C@@H]3CCC4=CC(=O)C=C[C@]4(C)[C@@]3(F)[C@@H](O)C[C@]2(C)[C@@]1(O)C(=O)CO` [dexamethasone], the “Bmax (maximum specific binding)” value on Ala610 GR [3] was found to be 1479 ± 79.7 fmol/mL; on Val610 GR ([3H]-dexamethasone, whole Cos-7 cells, mean ± SE), 1204 ± 118.1 fmol/mL. Besides, the Kd on Val610 GR turned out to be 0.00608 µM; on AlaVal610 GR ([3H]-dexamethasone 0.2 to 24 nM, heterozygous carriers), 0.000529 ± 6.8e-05 µM. The Bmax is given as 62.2 ± 5.9 fmol/mg protein on Ala610 GR [4] and 63.4 ± 5.0 fmol/mg protein on AlaVal610 GR ([3H]-dexamethasone, heterozygous carriers). The “increased affinity of heterozygous carriers compared to wild-type controls” value at AlaVal610 GR turned out to be 1.7 fold. Moreover, the “time to full translocation into the nucleus” value at GFP-tagged Ala610 GR and at GFP-tagged Val610 GR was no more than 15 min each time.

For `C[C@]12CC[C@H]3[C@@H](CCC4=CC(=O)CC[C@@]43C)[C@@H]1CC[C@@H]2O` [testosterone], the “activation of the MMTV-driven luciferase reporter” value in test [1] (data not shown) was “unable to activate”; in test [2] (Val610 GR, data not shown) it was “unable to activate; also recorded: remained insensitive”.
